Results reported in article PMC9034499, “RORγt agonist enhances anti-PD-1 therapy by promoting monocyte-derived dendritic cells through CXCL10 in cancers” (Journal of Experimental & Clinical Cancer Research : CR, 2022).

How the values were obtained:
[1] = tested on: OVA-pulsed EL-4 lymphoma cells; experiment: Ex vivo cytotoxicity assay of Tc17 cells; format: cell-based, mouse; details: Tc17 cells differentiated from OT-I T cells with 8-074
Method: The EL4 cells were pulsed using 50 ng/ml OVA257-264 peptide (SIINFEKL) (Sangon Biotech, Shanghai, China) for 2 h at 37 °C and then labeled with 0.25 μM or 2.5 μM of CFSE (carboxyfluorescein succinimidyl ester; Thermo Fisher Scientific, Massachusetts, America) for 10 min at 37 °C. CFSE^l°^w (SIINFEKL loaded target) and CFSE^high (irrelevant peptide control) EL4 cells were mixed at a 1:1 ratio and then co-cultured with Tc17 cells differentiated from OT-I T cells challenged (or not) with 8-074 at 30:1, 10:1, 3:1, and 1:1 effector to target cell ratios (E: T). The frequencies of the CFSE^l°^w and CFSE^high EL4 cells in the CFSE positive fraction were determined using flow cytometric analysis 18 h after incubation, and the percent of the specific killing was calculated. Specific killing (%) = [1 − (Sample ratio) / (Negative control ratio)] × 100; Sample ratio = [CFSE^l°^w(target)/CFSE^high(irrelevant)] value of each sample co-cultured with Tc17 cells; Negative control ratio = [CFSE^l°^w(target) / CFSE^high (irrelevant)] value of EL4 cells not cultured with Tc17 cells.

RORγt LBD protein = target: T1, RORγt LBD protein (Homo sapiens, UniProt P51449); experiment: Biacore binding to RORγt LBD protein; details: RORγt protein immobilized on CM5 chip
T1 construct: RORγt (residues 263–509)-GGG-SRC1; GGG linker + SRC1 peptide (C); His-tag (inferred from pET28a and nickel purification); made in house; host or cells: E. coli strain DE3, pET28a
T1 sequence (P51449 263-509): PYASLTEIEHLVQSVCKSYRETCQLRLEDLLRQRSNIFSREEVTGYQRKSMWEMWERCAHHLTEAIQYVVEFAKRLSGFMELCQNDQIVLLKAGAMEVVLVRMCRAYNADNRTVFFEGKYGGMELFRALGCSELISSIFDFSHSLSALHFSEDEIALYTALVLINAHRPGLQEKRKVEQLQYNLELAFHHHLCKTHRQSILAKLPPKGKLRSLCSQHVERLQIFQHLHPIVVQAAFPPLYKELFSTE
Excerpt: Human nuclear receptor RORγt (residues 263–509)-GGG-SRC1 (SRC1 sequence: EKHKILHRLLQDS, Sangon Biotech, Shanghai). RORγt LBD was cloned in pET28a. Key residue mutations of RORγt LBD (such as PHE388, LEU391, CYS393, LEU396, ILE397, ILE400, CYS320, ALA321, LEU324, MET358, and PHE388) with LYC-55716 were cloned in pET28a. Key residue mutations of RORγt LBD (MET365, ALA368, PHE401, ILE400, ILE397, LEU396, TRP317, CYS320, LEU324, ALA327, TYR330, VAL331, MET358, and VAL361) with 8-074 were cloned in pET28a. The proteins were expressed in E. coli strain DE3. Then, the transformed E. coli culture was grown at 37 °C with 30 μg/mL Kanamycin LB (Luria–Bertani). When the OD600 of LB medium reached 0.6, the temperature was changed to 16 °C, and isopropyl-β-D-thiogalactopyranoside (IPTG, Beyotime, Shanghai, China) was added at a final concentration of 0.4 mM to induce protein expression for 16 h. After 16 h, the pellet was collected after centrifugation at 4,000 rpm for 15 min at 4 °C. […]
The RORγt protein was immobilized on a CM5 chip (GE Health, Chicago, USA) using Biaocre 8 K. A sensogram was obtained using different serial concentrations of 8-074 (5000 nM, 2500 nM, 1250 nM, 625 nM, 312.5 nM, 156.25 nM, 78.125 nM, and 39.0625 nM). […] Data were analyzed using Biacore Evaluation Software.

CCS(=O)(=O)c1ccc(CC(=O)Nc2ccc(-c3ccc(CC(C)C)c(C#N)c3)c(C(F)(F)F)c2)cc1 [8-074]
cytotoxic killing activity of treated Tc17 cells [1]: significant increase | Kd (RORγt LBD protein): 0.497 µM
